Measured values from paper PMC12022980, “Rational Design of PROTAC Linkers Featuring Ferrocene as a Molecular Hinge to Enable Dynamic Conformational Changes” (Journal of the American Chemical Society, 2025).
Where two headings read alike, the source gives them in different places.

What was measured:
VHL = biological target: T1, VHL (Homo sapiens, UniProt P40337); experiment: NanoBRET VHL target engagement, live-cell mode; type: cell-based; settings: for IC50: HEK293 transfected with VHL-NanoLuc, live cells, tracer 1 μM
T1 construct: host or cells: HEK293, transient transfection
T1 sequence (P40337 whole entry): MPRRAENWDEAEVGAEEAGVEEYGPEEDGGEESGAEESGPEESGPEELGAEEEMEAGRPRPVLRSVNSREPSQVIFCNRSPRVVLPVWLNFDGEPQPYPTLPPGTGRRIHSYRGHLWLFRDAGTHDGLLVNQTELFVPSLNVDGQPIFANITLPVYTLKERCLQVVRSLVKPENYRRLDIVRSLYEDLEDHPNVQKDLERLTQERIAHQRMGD
Source text: To this end, we assessed the PROTAC cellular permeability by evaluating VHL target engagement using the Promega NanoBRET TE Intracellular E3 Ligase.[62] Current PROTAC permeability assays use artificial systems like PAMPA and Caco-2, designed for small molecules but not always effective for PROTACs due to their low permeability, high molecular weight and assay caveats (i.e., unspecific binding and low recovery).[63],[64] The NanoBRET assay is a high-throughput method validated for measuring E3 ligase engagement in live and permeabilised cells. The assay allows to rank PROTAC intracellular availability through competitive probe displacement and offers a simple workflow for prioritising compounds based on properties associated with permeability. […] Specifically, in the live-cell mode, the assay measures the apparent cellular affinity, where the plasma membrane is intact and can impede the compound’s access to its target. In the permeabilised-cell mode, the barrier posed by the plasma membrane is removed and the intrinsic affinity of the compound for target is measured. […] The ratio of potencies between live-cell and permeabilised-cell modes, referred to as the relative-binding affinity (RBA) value increases as intracellular availability decreases and is thus a metric for assessing a PROTAC̀s cellular availability. […]

[1] = ChromLogD (chromatographic); type: physicochemical; settings: HPLC on Hypersil GOLD-C18 column, pH 7.4
Description: (§1) For the permeabilised-cell assay, 10 µL of digitonin was added, and plates were incubated in darkness for 5 minutes to allow permeabilisation. In each well 10 µL of the 10x PROTAC and vehicle control dilutions were dispensed. A 100x NanoBRET tracer solution (50 µM for VHL permeabilised-cell assay) was prepared with 100% DMSO, then diluted to a 20x solution with tracer dilution buffer. A 5 µL volume of tracer was dispensed into each well at a final concentration of 0.5 µM, and the plate was mixed at 300 RPM for 15 seconds. Finally, 50 µL of a 3x substrate solution (8.8 µL NanoBRET Nano-Glo substrate and 3,500 µL Opti-MEM) was added, and plates were incubated for 1 minute at room temperature before reading on a GloMax Discover as […]
HiBiT Lytic Assay with Zosuquidar Co-treatment
A modified HiBiT lytic assay was used to assess the activity of zosuquidar on the BET degradation. […]
(§2) Luminescence was measured using the GloMax® Multiplex Luminescence and Fluorescence Protocol for 96-well plates. The luminescence signal for each well was normalised to the fluorescence signal and further normalised to the mean values from iPrOH-treated controls, then expressed as a ratio relative to the vehicle control. Curve fitting and DC50 values were determined in GraphPad Prism v.10.0.3 using nonlinear regression with a three-parameter logistic model to calculate DC50 values.
The stock solution of each test item was prepared from a 10mM stock in iPrOH, which was further diluted 1:50 with […] to obtain a 0.2 mM solution (4 µL of the test item stock solution is diluted with 196 µL DMSO) in insert vials. The samples were analysed on an HPLC system equipped with a HPLC-ThermoScientific Hypersil GOLD-C18 column (2.1 x 50 mm, 1.9 µm) and by MS detection using electrospray ionization (ESI) and Atmospheric Pressure Chemical Ionization (APCI) on a Shimadzu LCMS 2050. […]
(§3) of 1 mL/min and a column temperature of 40 °C. […] Data were analysed with Shimadzu Open Solution Data Browser to obtain the RTs of the peak for each individual compound and standards. […]

[2] = LogD7.4 shake flask (octanol/phosphate buffer); type: physicochemical; settings: octanol/potassium phosphate buffer, pH 7.4
Source text: The modulation of lipophilicity could play a critical role in optimizing PROTACs. We thus utilized traditionally measured LogD values from shake flask experiments alongside chromatographically assessed ChromLogD values.[72] […] By incorporating ferrocene, permeability may be improved due to the feature of promoting IMHB-mediated compact conformations, while also balancing the lipophilicity of the polar ligand/PEG linkers. However, while sufficient lipophilicity is required for passive uptake over the cell membrane, it may also drive poor aqueous solubility.[73]
as §1
HiBiT Lytic Assay with Zosuquidar Co-treatment […]
as §2, with “values. […]” for “values.”
as §3
ChromLogD values for the compounds were then calculated based on the regression curve. […]

pVHL30 = biological target: T2, pVHL30 (Homo sapiens, UniProt P40337); experiment: Western blot VHL degradation in HEK293 cells; type: cell-based
T2 construct: endogenous in cells; host or cells: HEK293 (ATCC)
T2 sequence (P40337 whole entry): as above
Description: To further elucidate the mode of action of FerroTAC AS2, we explored its dependency on ubiquitination and proteasome activity.
A) Representative immunoblots of VHL protein levels after treatment of
HEK293 cells. Cells were treated with 0.1% EtOH, 0.1 μM or 1 μM of the indicated compounds for 4 and 24 h.
Controls were included at 1 μM for 24 h. Mean values of two biologically independent experiments.
Representative time-course immunoblots of VHL protein levels after treatment of HEK293 cells treated with
Cells were treated with 0.1% EtOH and controls at 1 μM. Mean values of two biologically
independent experiments. Apparent half-life values (t 1/2) were estimated by fitting band intensity against time
using a single-phase exponential decay model. C) Representative immunoblots of VHL protein levels in
neddylation inhibitor MLN4924 (3 μM) and VHL inhibitor VH032 (50 μM). The amount of EtOH (0.1%) and
DMSO (0.5%) is fixed in all samples. Band quantification was performed using ImageJ software and reported
(in black and black) as relative amount as ratio of each protein band relative to the lane’s loading control
(tubulin). VHL/tubulin protein ratios were normalised to the average of the controls (100%).
HEK293 and HCT116 cell lines, purchased from ATCC, were cultured in Dulbecco’s modified Eagle’s medium (DMEM, Gibco) supplemented with 10% fetal bovine serum (FBS, Gibco), L-glutamine (2 mM, Gibco) and 100 μg/mL of penicillin/streptomycin (Gibco). All cell lines were maintained in a humidified incubator at 37 °C and 5% CO2 for no more than 30 passages. Cells were routinely tested for mycoplasma contamination.
Cell Treatment for Immunoblotting
depending on the experimental setup. Cells were treated in fresh medium with the indicated compounds under indicated conditions with a final EtOH or iPrOH concentration of 0.01% (v/v) to 0.1% (v/v) depending on the experimental setup. […]
stored at −80°C. Protein concentration was determined by bicinchoninic acid (BCA) assay (Thermo Fisher […]
Quantitative Immunoblotting […]

AI (availability index = RBAPROTAC ÷ RBAVH298) (VHL) | RBA (relative binding affinity = IC50live ÷ IC50perm) (VHL) | fold lower potency in live-cell vs permeabilised-cell assay (VHL) [fold] | IC50 (VHL) [nM] | chromatographic logD [1] | logD [2] | Dmax at 1 µM (pVHL30; HEK293, 4 h, read-out: Dmax at 1 μM (pVHL30)) [%] | Dmax at 1 µM (pVHL30; HEK293, 24 h, read-out: maximal degradation (Dmax) of pVHL30) [%] | SMILES
4.2 | 4.4 | 4 | 1330 | 3.7 | 3.3 |  |  | Cc1ncsc1-c1ccc(CNC(=O)[C@@H]2C[C@@H](O)CN2C(=O)[C@@H](NC(=O)CCCCCOCCOCCCCCC(=O)Nc2cccc3c2C(=O)N(C2CCC(=O)NC2=O)C3=O)C(C)(C)C)cc1 (stereo partly shown) [14a]
1.4 | 1.4 |  | 450 | 3.2 | 2.9 | 98 | 100 | Cc1ncsc1-c1ccc(CNC(=O)[C@@H]2C[C@@H](O)CN2C(=O)[C@@H](NC(=O)COCCOCCOCCOCCOCCOCC(=O)N[C@H](C(=O)N2C[C@H](O)C[C@H]2C(=O)NCc2ccc(-c3scnc3C)cc2)C(C)(C)C)C(C)(C)C)cc1 [CM11]
